For 16 compounds, IC90 results are on record in patent US11390604B2 (Hoffmann-La Roche Inc., priority 2019, dated 2022).

Counter-ions that a name gives are not always drawn.

The test system of this test is Acinetobacter baumannii ATCC 17961. Put plainly: Antimicrobial susceptibility testing: 90% growth inhibitory concentration (IC90) determination. The test is classed as cell-based. The conditions noted are these: ATCC17961, Acinetobacter baumannii ATCC 17961, Iso-Sensitest broth, read-out: ATCC 17961 IC90. Put shortly: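 Growth was followed kinetically by OD600 at 20-min intervals for 16 h at 35±2 °C, with ~5×10^5 CFU/ml in Iso-Sensitest broth. Compounds were tested as twofold dilutions (e.g. 50–0.097 μM final). The concentration giving 90% inhibition of log-phase growth was reported.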

Regarding `Cn1c(-c2cn(CC(C)(CO)CCl)nc2C(F)(F)F)cnc1C(=O)Nc1ccc(C(=O)N2CCN(C(=O)C3CCNCC3)CC2)c(Cl)c1` (stereo not shown) [Example 101, 5-[1-[2-(chloromethyl)-3-hydroxy-2-methylpropyl]-3-(trifluoromethyl)pyrazol-4-yl]-N-[3-chloro-4-[4-(piperidine-4-carbonyl)piperazine-1-carbonyl]phenyl]-1-methylimidazole-2-carboxamide;formic acid], the concentration for an effect of 90% (IC90) (in general, the concentration at which the effect reaches the 90% level) came to 733 nM.

In the case of `C=C(C)Cn1cc(-c2cnc(C(=O)Nc3ccc(C(=O)N[C@H]4C[C@@H](N)C4)c(Cl)c3)n2C)c(C(F)(F)F)n1` [Example 234, rac-N-(4-(((1s,3s)-3-aminocyclobutyl)carbamoyl)-3-chlorophenyl)-1-methyl-5-(1-(2-methylallyl)-3-(trifluoromethyl)-1H-pyrazol-4-yl)-1H-imidazole-2-carboxamide hydrochloride], the concentration for an effect of 90% (IC90) was 268 nM.

Regarding `Cn1c(-c2cn(CC(F)(F)F)nc2C(F)(F)F)cnc1C(=O)Nc1ccc(C(=O)N2CCN(C(=O)N[C@H]3C[C@@H](N)C3)CC2)c(Cl)c1` [Example 305, rac-N-((1s,3s)-3-aminocyclobutyl)-4-(2-chloro-4-(1-methyl-5-(1-(2,2,2-trifluoroethyl)-3-(trifluoromethyl)-1H-pyrazol-4-yl)-1H-imidazole-2-carboxamido)benzoyl)piperazine-1-carboxamide hydrochloride], the concentration for an effect of 90% (IC90) amounted to 373 nM.

Take `Cn1c(-c2cn(C3CC3(F)F)nc2C(F)(F)F)cnc1C(=O)Nc1ccc(C(=O)NC2(C)CCNCC2)c(Cl)c1` (stereo not shown) [Example 344, N-(3-chloro-4-((4-methylpiperidin-4-yl)carbamoyl)phenyl)-5-(1-(2,2-difluorocyclopropyl)-3-(trifluoromethyl)-1H-pyrazol-4-yl)-1-methyl-1H-imidazole-2-carboxamide formate]: the IC90 amounted to 443 nM.

For `Cn1c(-c2cn(C3CC3)nc2C(F)(F)F)cnc1C(=O)Nc1ccc(C(=O)N2CCC(C3CCNCC3)CC2)c(Cl)c1` [Example 323, N-(4-([4,4′-bipiperidine]-1-carbonyl)-3-chlorophenyl)-5-(1-cyclopropyl-3-(trifluoromethyl)-1H-pyrazol-4-yl)-1-methyl-1H-imidazole-2-carboxamide formate], the IC90 was 407 nM.

As to `CCc1cc(NC(=O)c2ncc(-c3cn(CC#N)nc3C(F)(F)F)n2C)ccc1C(=O)N1CCN(C(=O)[C@@H]2CCNC2)CC1` [Example 130, 5-[1-(cyanomethyl)-3-(trifluoromethyl)pyrazol-4-yl] N-[3-ethyl-4-[4-[(3R)-pyrrolidine-3-carbonyl]piperazine-1-carbonyl]phenyl]-1-methylimidazole-2-carboxamide;formic acid], the IC90 stood at 947 nM.

As to `CCc1cc(NC(=O)c2ncc(-c3cn(CC#N)nc3C(F)(F)F)n2C)ccc1C(=O)N1CCN(C(=O)[C@H]2C[C@H](N)C2)CC1` [Example 340, N-[4-[4-(3-aminocyclobutanecarbonyl)piper-azine-1-carbonyl]-3-ethyl-phenyl]-5-[1-(cyanomethyl)-3-(trifluoromethyl)pyrazol-4-yl]-1-methyl-imidazole-2-carboxamide; formic acid], the IC90 was determined as 428 nM.

For the compound `Cn1c(-c2cn(CCn3cccn3)nc2C(F)(F)F)cnc1C(=O)Nc1ccc(C(=O)N2CCN(C(=O)C3CCNCC3)CC2)c(Cl)c1` [Example 23, 5-(1-(2-(1H-pyrazol-1-yl)ethyl)-3-(trifluoromethyl)-1H-pyrazol-4-yl)-N-(3-chloro-4-(4-(piperidine-4-carbonyl)piperazine-1-carbonyl)phenyl)-1-methyl-1H-imidazole-2-carboxamide formate], the IC90 turned out to be 1420 nM.

On to `CCc1cc(NC(=O)c2ncc(-c3cn(CC#N)nc3C(F)(F)F)n2C)ccc1C(=O)N1CCN(C(=O)C2CCN(C)CC2)CC1` [Example 127, 5-[1-(cyanomethyl)-3-(trifluoromethyl)pyrazol-4-yl]-N-[3-ethyl-4-[4-(1-methylpiperidine-4-carbonyl)piperazine-1-carbonyl]phenyl]-1-methylimidazole-2-carboxamide;formic acid], for which the concentration for an effect of 90% (IC90) worked out at 681 nM.

For `COCC#CCn1cc(-c2cnc(C(=O)Nc3ccc(C(=O)N4CCN(C(=O)C5CCNCC5)CC4)c(Cl)c3)n2C)c(C(F)(F)F)n1` [Example 18, N-(3-chloro-4-(4-(piperidine-4-carbonyl)piperazine-1-carbonyl)phenyl)-5-(1-(4-methoxybut-2-yn-1-yl)-3-(trifluoromethyl)-1H-pyrazol-4-yl)-1-methyl-1H-imidazole-2-carboxamide hydrochloride], the concentration for an effect of 90% (IC90) is 419 nM.

On to `C#CCn1cc(-c2cnc(C(=O)Nc3ccc(C(=O)N4CCN(C(=O)C5CCN(C)CC5)CC4)c(Cl)c3)n2C)c(C(F)(F)F)n1` [Example 13, N-(3-chloro-4-(4-(1-methylpiperidine-4-carbonyl)piperazine-1-carbonyl)phenyl)-1-methyl-5-(1-(prop-2-yn-1-yl)-3-(trifluoromethyl)-1H-pyrazol-4-yl)-1H-imidazole-2-carboxamide], for which the concentration for an effect of 90% (IC90) was found to be 335 nM.

For `Cn1c(-c2cn(CCF)nc2C(F)(F)F)cnc1C(=O)Nc1ccc(C(=O)N2CCNCC2)c(Cl)c1` [Example 68, N-[3-chloro-4-(piperazine-1-carbonyl)phenyl]-5-[1-(2-fluoroethyl)-3-(trifluoromethyl)pyrazol-4-yl]-1-methylimidazole-2-carboxamide;hydrochloride], the IC90 amounted to 489 nM.

Take `Cn1c(-c2cn(C3CC3)nc2C(F)(F)F)cnc1C(=O)Nc1ccc(C(=O)N2CCC(CN)CC2)c(Cl)c1` [Example 207, N-(4-(4-(aminomethyl)piperidine-1-carbonyl)-3-chlorophenyl)-5-(1-cyclopropyl-3-(trifluoromethyl)-1H-pyrazol-4-yl)-1-methyl-1H-imidazole-2-carboxamide formate]: the IC90 worked out at 226 nM.

With `Cn1c(-c2cn(CCOC(F)F)nc2C(F)(F)F)cnc1C(=O)Nc1ccc(C(=O)N2CCN(C(=O)C3CCNCC3)CC2)c(Cl)c1` [Example 109, N-[3-chloro-4-[4-(piperidine-4-carbonyl)piperazine-1-carbonyl]phenyl]-5-[1-[2-(difluoromethoxy)ethyl]-3-(trifluoromethyl)pyrazol-4-yl]-1-methylimidazole-2-carboxamide;hydrochloride], the 90% effect concentration (IC90) worked out at 473 nM.

For `Cn1c(-c2cn(CC(N)=O)nc2C(F)(F)F)cnc1C(=O)Nc1ccc(C(=O)N2CCN(C(=O)C3CCNCC3)CC2)c(Cl)c1` [Example 20, 5-(1-(2-amino-2-oxoethyl)-3-(trifluoromethyl)-1H-pyrazol-4-yl)-N-(3-chloro-4-(4-(piperidine-4-carbonyl)piperazine-1-carbonyl)phenyl)-1-methyl-1H-imidazole-2-carboxamide formate], the IC90 amounted to 1660 nM.

`Cn1c(-c2cn(CC#N)nc2C(F)(F)F)cnc1C(=O)Nc1ccc(C(=O)N[C@H]2C[C@@H](NC(=O)N3CCCC3CN)C2)c(Cl)c1` (stereo partly shown) [Example 361, N-[4-[[3-[[2-(aminomethyl)pyrrolidine-1-carbonyl]amino]cyclobutyl]car-bamoyl]-3-chloro-phenyl]-5-[1-(cyanomethyl)-3-(trifluoromethyl)pyrazol-4-yl]-1-methyl-imidazole-2-carboxamide; formic acid]: the concentration for an effect of 90% (IC90) came to 479 nM.
